# In patent publication EP0731088B1, “Retroviral protease inhibitors” (MONSANTO COMPANY, priority 1990, dated 1992):
# What was measured:
# [1] = target: T1, HIV protease (Human immunodeficiency virus type 1 group M subtype B, UniProt P04585); experiment: HIV protease enzyme assay (fluorogenic substrate 2-aminobenzoyl-Ile-Nle-Phe(p-NO2)-Gln-ArgNH2); assay type: biochemical; settings: substrate 80 µM, enzyme 12.3 nanomolar, pH 6.4, ambient temperature
# T1 construct: HIV protease is diluted in the assay buffer to a final enzyme concentration of 12.3 nanomolar, based on a molecular weight of 10,780
# Description: The compounds of the present invention are effective HIV protease inhibitors. Utilizing an enzyme assay as described below, the compounds set forth in the examples herein disclosed inhibited the HIV enzyme. The preferred compounds of the present invention and their calculated IC50 (inhibiting concentration 50%, i.e., the concentration at which the inhibitor compound reduces enzyme activity by 50%) values are shown in Table 18. The enzyme method is described below. The substrate is 2-aminobenzoyl-Ile-Nle-Phe(p-NO2)-Gln-ArgNH2. The positive control is MVT-101 (Miller, M. et al, Science, 246, 1149 (1989)] The assay conditions are as follows: Assay buffer: • 20 mM sodium phosphate, pH 6.4 • 20% glycerol • 1 mM EDTA • 1 mM DTT • 0.1% CHAPS
# The above described substrate is dissolved in DMSO, then diluted 10 fold in assay buffer. Final substrate concentration in the assay is 80 µM.
# HIV protease is diluted in the assay buffer to a final enzyme concentration of 12.3 nanomolar, based on a molecular weight of 10,780.
# The final concentration of DMSO is 14% and the final concentration of glycerol is 18%. […] The increase in fluorescence is monitored at 4 time points (0, 8, 16 and 24 minutes) at ambient temperature. […]
# [2] = tested on: HIV-1; experiment: CEM cell assay: HIV inhibition in acutely infected cells, tetrazolium (MTT) based colorimetric assay; settings: Table 19; test concentration not given; CEM cells infected with HIV-1, 7 days
# Experimental: The effectiveness of the compounds listed in Table 19 were determined in the above-described enzyme assay and in a CEM cell assay.
# Methods 20, 309-321 (1988).
Structure (SMILES),IC50 [1] [nM],Inhibition [2] [%]
"CCCCC(=O)N(CC1CCCCC1)C[C@@H](O)[C@H](Cc1ccccc1)NC(=O)[C@H](CC(N)=O)NC(=O)OCc1ccccc1 (relative stereo) [Compound 2, Butanediamide, N^1-[3-[[butylcarbonyl](cyclohexylmethyl)amino]-2-hydroxy-1-(phenylmethyl)propyl]-2-[(phenylmethyloxy)carbonyl)amino]-, [1S-[1R*(2R*),2S*]]]",696,
"CC(C)CCN(C[C@@H](O)[C@H](Cc1ccccc1)NC(=O)[C@H](CC(N)=O)NC(=O)c1ccc2ccccc2n1)C(=O)CC(C)(C)C (relative stereo) [Compound 1, Butanediamide, N^1-[3-[[[(2,2-dimethyl)propyl]carbonyl](3-methylbutyl)amino]-2-hydroxy-1-(phenylmethyl)propyl]-2-[(2-quinolinylcarbonyl)amino]-, [1S-[1R*(2R*),2S*]]]",21,100
